Like-named read-outs stand apart in the source and are kept apart here.
Tests used:
skin of healthy subjects = details: cited from earlier work
[1] = cited from earlier work; for sun protection factor (SPF): 290-400 nm
[2] = system: COL3A1 (Collagen, type III, alpha 1); assay: Differential gene fold expression analysis of skin biopsies; assay type: in vivo, human; details: RNA, biopsy of treated vs untreated skin after 6 weeks of application, parentheses = not statistically significant, negative = decrease
Description: (§1) Differential gene fold expression analysis was used to analyze Malassezin and compound AB17151. Biopsies from human subjects were taken after 6 weeks of application of compounds. Two participants applied AB17151 and one participant applied Malassezin. Biopsies were taken of treated skin and, as a control and for comparison, from untreated skin.
(§2) In the Table, numbers in parentheses indicate changes that are not statistically significant. All numbers indicate fold change in expression. Negative values indicate decreases in activity. A minus-3-fold change in activity, for example, means that the value changed by minus-3-fold, meaning it changed to ⅓ of its original value.

fine lines and wrinkles = assay: Fine lines and wrinkles, dermatologist evaluation (Lemperle classification); assay type: in vivo, human; details: 11 subjects, 0.1%, 0.5% and 1.0% formulations pooled
Experimental: Malassezin formulations were evaluated for their effect on fine lines and wrinkles. In this study, human subjects with skin containing areas of hyperpigmentation were randomized to one of 3 groups. […] One mL of product (formulations detailed below) was applied to the face of subjects twice daily. Five minutes after the morning application, an SPF 50 sunscreen was applied to protect the treated areas from sun. Each subject had assessments at Baseline, 2, 4, 8, 14, 18 and 22 weeks. Treatment was ceased at 14 weeks. Week 18 and week 22 observations were to determine any return towards baseline.
Eleven subjects using the test ingredient completed week 14. […] An M.D. dermatologist with experience in evaluating fine lines and wrinkles performed evaluations on the subjects in this study and obtained the measurements tabulated below. Wrinkle assessment, classification, and evaluation were performed as described in G. Lemperle et al., A classification of facial wrinkles, Plast. Reconstr. Surg. 108: 1735 (2001), incorporated by reference herein in its entirety. For each subject, the percentage Malassezin formulation is indicated.

subject's skin = assay: In vivo photoprotection, clinical erythema evaluation after UVB irradiation; set-up: species or system human; details: Malassezin 1% formulation, one Skin Type IV subject
Description: The Malassezin 1% formulation used in this study contained the following ingredients: Water (aqua)—65.939%; Dimethyl isosorbide—20.000%; Olive Oil Glycereth-8 Esters—3.000%; Glycerin—2.991%; Coconut Alkanes—2.700%; Hydroxyethyl Acrylate/Sodium Acryloyldimethyl Taurate Copolymer—1.700%; Malassezin—1.000%; Pentylene Glycol—1.000%; Phenoxyethanol—0.640%; Coco-Caprylate/Caprate—0.300%; Caprylyl Glycol—0.200%; Chlorphenesin—0.160%; Sorbitan Isostearate—0.140%; Tocopherol—0.100%; Polysorbate 60-0.080%; and Disodium EDTA—0.050%.
A Skin Type IV […] was included in this Proof of Concept study.
A template of 6 squares was placed on the lower left back (1.5 cm×1.5 cm) of the test subject.
Twenty-four hours after irradiation, the subject returned for MED assessment.
A second right lower square was treated twice daily from day 4 to day 7, and a third medial square for one application on day 7. The product vehicle was applied for 7 days twice daily on the left back. The subject returned to the research center for irradiation on day 7. Each test site was irradiated with 120 mJ of UVB exposure. The subject returned in 24 hours for assessment of phototoxicity/photoprotection.
The subject continued the experiment, receiving Malassezin 1% for a total of 14 days. […]

[3] = system: lines and wrinkles, skin texture, tone and firmness; assay: Subject self-assessment questionnaire; assay type: in vivo, human; details: percentage of 11 subjects with a score of 6 or 5, formulations pooled
Experimental: Malassezin formulations were evaluated for their effect on fine lines and wrinkles. In this study, human subjects with skin containing areas of hyperpigmentation were randomized to one of 3 groups. Product use groups included Malassezin 0.05%, 0.1%, and 1.0%. One mL of product (formulations detailed below) was applied to the face of subjects twice daily. Five minutes after the morning application, an SPF 50 sunscreen was applied to protect the treated areas from sun. Each subject had assessments at Baseline, 2, 4, 8, 14, 18 and 22 weeks. Treatment was ceased at 14 weeks. Week 18 and week 22 observations were to determine any return towards baseline.
A subject self-assessment was completed at every visit. A total number of eleven (11) subjects were asked to respond to the questions regarding the improvement (if any) in their lines and wrinkles and related skin texture, tone, and firmness. Each answer was ranked from 6 to 1, with each having the meaning: 6—Strongly agree, 5—Agree, 4—Agree somewhat, 3—Disagree somewhat, 2—Disagree, and 1—Strongly disagree. The percentage of subjects answering with a score of 6 or 5 was calculated and is presented in the data below.

Adverse events recording = assay type: in vivo, human; details: all visits; Malassezin 0.1%, 0.5%, 1.0% formulations twice daily to the face
Experimental: Evaluation: Colorimetry measurements using the Mexameter MX 18 were used at Baseline, and Weeks 2, 4, 8, 14, 18, and 22. Clinical assessments of depigmentation was performed in the treated area. Assessments were performed at Baseline, and Weeks 2, 4, 8, 14, 18, and 22. Brightening assessments included brightening of normal skin and/or severity of dyschromia, if present (see scale). Global improvement was measured at the same time intervals. At all visits any adverse events (AE) was to be recorded including itching, burning, erythema, edema, dryness, scaling or skin peeling (see rating scales). […] Positive percentages indicate increased pigmentation, which indicates darkening. “Conc.” indicates the concentration of Malassezin in the formulation administered to the subject.

[4] = system: COL5A1 (Collagen, type V, alpha 1); assay: Differential gene fold expression analysis of skin biopsies; assay type: in vivo, human; details: RNA, biopsy of treated vs untreated skin after 6 weeks of application; participant; parentheses = not statistically significant; negative = decrease
Description: as §1, §2

[5] = system: PCOLCE2 (Pro-Collagen C endopeptidase enhancer 2); assay: as above; assay type: in vivo, human; details: RNA, biopsy of treated vs untreated skin after 6 weeks of application, parentheses = not statistically significant, negative = decrease
Description: as §1, §2

[6] = system: COL1A1 (Collagen, type 1, alpha 1); assay: as above; assay type: in vivo, human; details: RNA, biopsy of treated vs untreated skin after 6 weeks of application; participant; parentheses = not statistically significant; negative = decrease
Description: as §1, §2

[7] = system: COL1A2 (Collagen, type 1, alpha 2); assay: as above; assay type: in vivo, human; details: RNA, biopsy of treated vs untreated skin after 6 weeks of application, parentheses = not statistically significant, negative = decrease
Description: as §1, §2

[8] = system: MMP7 (Matrix Metalloproteinase 7); assay: as above; assay type: in vivo, human; details: RNA, biopsy of treated vs untreated skin after 6 weeks of application; participant one; parentheses = not statistically significant; negative = decrease
Description: as §1, §2

[9] = system: COL5A2 (Collagen, type V, alpha 2); assay: as above; assay type: in vivo, human; details: RNA, biopsy of treated vs untreated skin after 6 weeks of application; participant; parentheses = not statistically significant; negative = decrease
Description: as §1, §2

In the case of `O=C(c1c[nH]c2ccccc12)c1nccc2c1[nH]c1ccccc12` [pityriacitrin, Pityriacitrin], the “UV protective effect, overall” value (skin of healthy subjects; in vitro and in vivo test methods) is given as “very weak”, the “in vivo confirmation of the SPF determined in vitro” value (skin of healthy subjects; pityriacitrin 5% cream) is given as “confirmed the validity of the SPF” and the “sun protection factor (SPF)” value ([1]; pityriacitrin concentration 1.25% in cream) is given as 1.4. The “sun protection factor (SPF)” value ([1]; pityriacitrin concentration 2.5% in cream) was 1.5, the “sun protection factor (SPF)” value ([1]; pityriacitrin concentration 5% in cream) was 1.7 and the “UVB and UVA transmission” value ([1]; pityriacitrin cream formulations) was “decreased with increasing pityriacitrin concentrations”.
In the case of `O=Cc1c(Cc2c[nH]c3ccccc23)[nH]c2ccccc12` [Malassezin], the “COL3A1 fold change in expression” value ([2]; participant two) is reported as 1.7 fold change, the “Fine lines/wrinkles score, Average” value (fine lines and wrinkles; Week 0 (baseline)) is reported as 2.55 and the “Fine lines/wrinkles score, Average” value (fine lines and wrinkles; Week 2, P-value 0.024 (Student's T test)) is reported as 1.82. For the same molecule, the “Fine lines/wrinkles score, Average” value (fine lines and wrinkles; Week 4, P-value 0.011 (Student's T test)) was 1.73, the “Fine lines/wrinkles score, Average” value (fine lines and wrinkles; Week 8, P-value 0.011 (Student's T test)) was 1.73 and the “Fine lines/wrinkles score, Average” value (fine lines and wrinkles; Week 14, P-value 0.011 (Student's T test)) was 1.73. The “UV-protective properties, conclusion of the Proof of Concept study” value (subject's skin) was “UV-protective properties”, the “Self-assessment: I have smoother skin texture” value ([3]; Week 2) was 45.45% and the “Self-assessment: My Lines and wrinkles are less visible” value ([3]; Week 2) was 36.36%. For the same molecule, the “Self-assessment: My skin firmness has improved” value ([3]; Week 2) was 36.36%, the “Self-assessment: My skin has a brighter tone” value ([3]; Week 2) was 45.45% and the “Self-assessment: My skin looks more youthful and healthy” value ([3]; Week 2) was 45.45%. The “Self-assessment: My skin texture is less coarse” value ([3]; Week 2) was 54.55%, the “Self-assessment: Overall skin texture is improved” value ([3]; Week 2) was 54.55% and the “Self-assessment: Overall skin tone is improved” value ([3]; Week 2) was 54.55%. For the same molecule, the “Self-assessment: I have smoother skin texture” value ([3]; Week 4) was 63.64%, the “Self-assessment: My Lines and wrinkles are less visible” value ([3]; Week 4) was 54.55% and the “Self-assessment: My skin firmness has improved” value ([3]; Week 4) was 63.64%. For the same molecule, the “Self-assessment: My skin has a brighter tone” value ([3]; Week 4) was 63.64%, the “Self-assessment: My skin looks more youthful and healthy” value ([3]; Week 4) was 63.64% and the “Self-assessment: My skin texture is less coarse” value ([3]; Week 4) was 63.64%. For the same molecule, the “Self-assessment: Overall skin texture is improved” value ([3]; Week 4) was 63.64%, the “Self-assessment: Overall skin tone is improved” value ([3]; Week 4) was 63.64% and the “Self-assessment: I have smoother skin texture” value ([3]; Week 8) was 81.82%. For the same molecule, the “Self-assessment: My Lines and wrinkles are less visible” value ([3]; Week 8) was 63.64%, the “Self-assessment: My skin firmness has improved” value ([3]; Week 8) was 63.64% and the “Self-assessment: My skin has a brighter tone” value ([3]; Week 8) was 72.73%. The “Self-assessment: My skin looks more youthful and healthy” value ([3]; Week 8) was 81.82%, the “Self-assessment: My skin texture is less coarse” value ([3]; Week 8) was 72.73% and the “Self-assessment: Overall skin texture is improved” value ([3]; Week 8) was 81.82%. For the same molecule, the “Self-assessment: Overall skin tone is improved” value ([3]; Week 8) was 72.73%, the “Self-assessment: I have smoother skin texture” value ([3]; Week 14) was 90.91% and the “Self-assessment: My Lines and wrinkles are less visible” value ([3]; Week 14) was 90.91%. The “Self-assessment: My skin firmness has improved” value ([3]; Week 14) was 72.73%, the “Self-assessment: My skin has a brighter tone” value ([3]; Week 14) was 81.82% and the “Self-assessment: My skin looks more youthful and healthy” value ([3]; Week 14) was 72.73%. For the same molecule, the “Self-assessment: My skin texture is less coarse” value ([3]; Week 14) was 100.00%, the “Self-assessment: Overall skin texture is improved” value ([3]; Week 14) was 90.91% and the “Self-assessment: Overall skin tone is improved” value ([3]; Week 14) was 81.82%. The “adverse events (itching, burning, erythema, edema, dryness, scaling or skin peeling)” value (Adverse events recording) was “No AEs were recorded”.
With `COC(=O)c1c(C(c2c[nH]c3ccccc23)C2CC2)[nH]c2ccccc12` (centres unmarked) [AB17151] the “COL5A1 fold change in expression” value [4] was 6.1 fold change, the “COL3A1 fold change in expression” value ([2]; participant one) was 2.59 fold change and the “COL3A1 fold change in expression” value ([2]; participant) was 6.26 fold change. For the same molecule, the “PCOLCE2 fold change in expression” value ([5]; participant one) was 1.57 fold change, the “PCOLCE2 fold change in expression” value ([5]; participant) was 1.5 fold change and the “COL1A1 fold change in expression” value [6] was 5.61 fold change. For the same molecule, the “COL1A2 fold change in expression” value ([7]; participant one) was 1.99 fold change, the “COL1A2 fold change in expression” value ([7]; participant) was 6.97 fold change and the “MMP7 fold change in expression” value [8] was 1.79 fold change. For the same molecule, the “COL5A2 fold change in expression” value [9] was 2.23 fold change.
